# Assay results: the supplement of paper PMC8253809
# Columns and labels:
# Assay in all cases: area under dose-response curve of % growth inhibition (log2 RLU vs DMSO / staurosporine), 1e-11 to 1e-4 M (% x log10 M); higher = more growth inhibition
# DIPGX29 = test system: DIPGX29 (H3.3 K27M diffuse intrinsic pontine glioma line)
# How it was run: (§1)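 Patient-derived pHGG/DIPG cell lines and astrocyte controls were grown on 1% Geltrex-coated 384-well plates and exposed to a 10-point threefold dilution series (mean top concentration 35 μM), in triplicate. Exposure was 7 days (iAstro 3 days) at 37 °C, 5% CO2. CellTiter-Glo luminescence was log2-transformed and normalised per plate to % activity between solvent and positive controls. Area under the curve was taken by trapezoid rule from the fitted log-logistic curve, or from a smoothing spline when the sigmoid fit failed.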
# DIPGX37 = test system: DIPGX37 (H3.3 K27M diffuse intrinsic pontine glioma line)
# How it was run: as §1
# HGGX39 = test system: HGGX39 (paediatric high-grade glioma line)
# How it was run: as §1
# HGGX6 = test system: HGGX6 (H3.3 G34R paediatric high-grade glioma line)
# How it was run: as §1
Structure (SMILES),area under dose-response curve (DIPGX29),area under dose-response curve (DIPGX37),area under dose-response curve (HGGX39),area under dose-response curve (HGGX6)
Nc1ncnc2c1c(COc1cccc(Cl)c1)nn2C1CCOCC1,10,32.2,23.5,14.3
O=C(O)c1ccc(CN2CCC(CN[C@@H]3C[C@H]3c3ccccc3)CC2)cc1,1.9,20.1,2.17,0.903
CN(N=O)C(=O)N[C@H]1C(O)O[C@H](CO)[C@@H](O)[C@@H]1O (mixture of isomers) [STREPTOZOSIN],11,8.39,7.25,5.51
Nc1ncn([C@@H]2O[C@H](CO)[C@@H](O)[C@H]2O)c(=O)n1 [5-AZACYTIDINE],12.5,18.2,17.6,12.1
Nc1nc(=O)n([C@H]2C[C@H](O)[C@@H](CO)O2)cc1F [5-FLUORODEOXYCYTIDINE],42.2,10.7,39.7,28.8
O=c1[nH]cc(F)c(=O)[nH]1 [5-FLUOROURACIL],17.6,4.4,10.6,25.2
COc1cc2c(cc1OCCCN1CCCC1)N=C(N)C21CCC1 [A-366],9.92,19,9.97,19.9
CC(=O)O[C@H]1CC[C@@]2(C)C(=CC[C@@H]3[C@@H]2CC[C@]2(C)C(c4cccnc4)=CC[C@@H]32)C1 [ABIRATERONE ACETATE],0,20.1,6.95,0
CCC1(c2ccc(N)cc2)CCC(=O)NC1=O (centres undefined) [AMINOGLUTETHIMIDE],7.58,4.75,3.33,14.3
CC(C)(C#N)c1cc(Cn2cncn2)cc(C(C)(C)C#N)c1 [ANASTROZOLE],7.52,5.71,1.48,1.46
CO[C@H]1O[C@@H]2O[C@@]3(C)CC[C@H]4[C@H](C)CC[C@@H]([C@H]1C)[C@@]24OO3 [ARTEMETHER],5.53,3.95,14.4,17.6
CCN(C(=O)CO)[C@H]1CN(/C(=N\C#N)Nc2cccc(OC(F)F)c2)N=C1c1ccc(Cl)c(Cl)c1 [BAY598],18.1,16.3,10.8,8.24
Cn1cc(CCn2cnc(-c3cnn(C)c3)c2-c2ccc(C#N)cc2)cn1 [BAZ2-ICR],8.96,22.9,16.5,14.6
C[C@H]1C[C@H]2[C@@H]3CCC4=CC(=O)C=C[C@]4(C)[C@@]3(F)[C@@H](O)C[C@]2(C)[C@@]1(O)C(=O)CO [BETAMETHASONE],23.1,10.5,11.8,16.4
C=C(c1ccc(C(=O)O)cc1)c1cc2c(cc1C)C(C)(C)CCC2(C)C [BEXAROTENE],21.8,6.14,28.4,13.2
COc1cc(-c2cn(C)c(=O)c3cnccc23)c(OC)cc1CN(C)C [BI-9564],12.6,11.6,5.33,3.53

Structure (SMILES),area under dose-response curve (DIPGX29),area under dose-response curve (DIPGX37),area under dose-response curve (HGGX39),area under dose-response curve (HGGX6)
C/C(=C\C(=O)Nc1ccccc1C(=O)O)c1ccc2ccccc2c1 [BIBR-1532],0,20.5,0,8.79
CC(=O)Oc1ccc(C(c2ccc(OC(C)=O)cc2)c2ccccn2)cc1 [BISACODYL],2.56,11.1,27.8,10.4
O=c1[nH]c(=O)n([C@H]2C[C@H](O)[C@@H](CO)O2)cc1/C=C/Br [BRIVUDINE],6.05,9.7,1.13,2.8
CCCC1O[C@@H]2C[C@H]3[C@@H]4CCC5=CC(=O)C=C[C@]5(C)[C@H]4[C@@H](O)C[C@]3(C)[C@]2(C(=O)CO)O1 (some centres undefined) [BUDESONIDE],35.7,19.3,11.8,6.8
CCCCCCNC(=O)n1cc(F)c(=O)[nH]c1=O [CARMOFUR],20.1,30.3,20.2,15.3
O=C(O)CCCc1ccc(N(CCCl)CCCl)cc1 [CHLORAMBUCIL],25.8,15.9,20.8,18.3
Nc1nc(Cl)nc2c1ncn2[C@H]1C[C@H](O)[C@@H](CO)O1 [CLADRIBINE],54.8,32.4,40.8,39.3
Nc1ccn([C@@H]2O[C@H](CO)[C@@H](O)[C@@H]2O)c(=O)n1 [CYTARABINE],42.9,23.3,30.6,15.6
CN(C)/N=N/c1[nH]cnc1C(N)=O [DACARBAZINE],6.29,17.2,19.3,16.5
Nc1ncn([C@H]2C[C@H](O)[C@@H](CO)O2)c(=O)n1 [DECITABINE],4.32,9.77,7.33,3.81
CC(=O)O[C@@]12CO[C@@H]1C[C@H](O)[C@@]1(C)C(=O)[C@H](O)C3=C(C)[C@@H](OC(=O)[C@H](O)[C@@H](NC(=O)OC(C)(C)C)c4ccccc4)C[C@@](O)([C@@H](OC(=O)c4ccccc4)[C@H]21)C3(C)C [DOCETAXEL],55.8,56,120,86.7
COc1cc([C@@H]2c3cc4c(cc3[C@@H](O[C@@H]3O[C@@H]5CO[C@@H](C)O[C@H]5[C@H](O)[C@H]3O)[C@H]3COC(=O)[C@H]23)OCO4)cc(OC)c1O [ETOPOSIDE],39.6,14.2,33.1,25.4
Cc1cc(C#N)cc(C)c1Oc1nc(Nc2ccc(C#N)cc2)nc(N)c1Br [ETRAVIRINE],24.2,10.8,18.9,9.91
CS(=O)(=O)c1ccc([C@@H](O)[C@@H](CF)NC(=O)C(Cl)Cl)cc1 [FLORFENICOL],11.3,10.6,15.6,4.4
Nc1nc(F)nc2c1ncn2[C@@H]1O[C@H](COP(=O)(O)O)[C@@H](O)[C@@H]1O [FLUDARABINE PHOSPHATE],32.1,39.7,10.3,6.46
